Experimental data: US20260274922A1, “SYNTHETIC ESTROGEN RECEPTOR (ER)-DERIVED PEPTIDE” (THE TEXAS A&M UNIVERSITY SYSTEM, priority 2023, published 2026)
Where no end group is shown, it is not given here. The star is where a group is joined. FITC = O=C1OC2(c3ccc(O)cc3Oc3cc(O)ccc32)c2ccc(NC(=S)*)cc21

System: DKO male mice
Experiment: AF1 peptide treatment of liver-specific IRS1 and IRS2 knockout (DKO) mice
Assay type: in vivo, mouse
Protocol: Animal studies. All animal experiments were performed following procedures approved by the Texas A&M University Institutional Animal Care and Use Committee. Mice are housed at 22-24° C. and maintained on a 12 h light/12 h dark cycle with a standard chow diet (58% calories from carbohydrate, 18% from fat, and 24% from protein, 3.1 kcal/g, with a reduced phytoestrogen content; Teklad Diet) ad libitum. Liver-specific ERα (ERα^LivKO) or ERβ (ERβ^LivKO) knockout mice were generated by crossing ERα or ERβ flox mice (gift from Dr. Yong Xu, Baylor College of Medicine) with Albumin-Cre mice purchased from The Jackson Laboratory (Strain #003574), respectively. Liver IRS1 and IRS2 double knockout (DKO) mice were generated by breeding IRS1 and IRS2 flox (IRS1^L/L::IRS2^L/L) mice with Albumin-Cre mice. Liver IRS1, IRS2, and ERα triple knockout (TKO) mice were generated by crossing DKO mice with ERα^LivKO mice. All mice were on C57B/6J background. Db/db mice were purchased from The Jackson Laboratory (Strain #000697). Female mice at age of 2-month-old underwent a bilateral ovariectomy (OVX) surgery; these mice were used to perform experiments 4 weeks after OVX surgery. All the mice experiments were performed with age- and gender-matched mice with their health status examined daily by the investigators and technicians from Texas A&M University LARR Animal Facility. Littermate controls were used if possible.
Glucose and insulin tolerance tests. For glucose tolerance tests, mice were fasted for 16 h and intraperitoneally (i.p.) injected with dextrose (1 g/kg body weight for mice fed with regular diet; 0.5 g/kg body weight for db/db mice or mice fed with HFD). For insulin tolerance tests, mice were fasted for 6 h and i.p. injected with insulin solution (1 U/kg body weight for male mice; 0.75 U/kg body weight for female mice). Blood glucose levels were measured using glucometer at indicated time points.
Co-immunoprecipitation and Western blotting analysis. […] Protein bands were detected using a ChemiDoc image system.

YGRKKRRQRRRTKASGMALLHEPLNRPQLKIPLERDSSKPAVYNY ({FITC}-YGRKKRRQRRRTKASGMALLHEPLNRPQLKIPLERDSSKPAVYNY) [AF1 peptide]
glucose homeostasis (glucose tolerance test): significantly improved
insulin sensitivity (insulin tolerance test): significantly improved
insulin-induced AKT phosphorylation in the liver (liver): could not be rescued
insulin-stimulated AKT phosphorylation in skeletal muscle and eWAT (skeletal muscle and epididymal white adipose tissue): partially improved
